The target of assay [1] is T1, serotoninergic 5-HT2A receptor (Homo sapiens, UniProt P28223). Nature of the assay: Cellular functional assay, serotoninergic 5-HT2A receptor (agonism/antagonism). The format is cell-based. To be noted: for activation at 1 µM: read-out: 5-HT2A -ag [%]; for inhibition at 1 µM: read-out: 5-HT2A -antag [%]. How it is done:
[…]. The compounds were tested at the concentration of 1×10^−6M.
Conditions and methodology (by reference to the literature) of cellular functional assays are given in Table 13 and the tests results for representative compounds are given in Table 14 (dopaminergic receptor D2), in Table 15 (dopaminergic receptor D3), in Table 16 (serotoninergic receptor 5-HT1A), in Table 17 (serotoninergic receptor 5-HT2A), in Table 18 (serotoninergic receptor 5-HT6), in Table 19 (serotoninergic receptor 5-HT7), in Table 20 (adrenergic α1 receptor), in Table 21 (adrenergic α2C receptor), in Table 22 (histaminergic H1 receptor) and in Table 23 (serotoninergic 5-HT2C receptor). In the Tables ag refers to agonism, and antag to antagonism).

Assay [2] deals with T2, serotoninergic 5-HT1A receptor (Homo sapiens, UniProt P08908).
T2 sequence (P08908 1-422): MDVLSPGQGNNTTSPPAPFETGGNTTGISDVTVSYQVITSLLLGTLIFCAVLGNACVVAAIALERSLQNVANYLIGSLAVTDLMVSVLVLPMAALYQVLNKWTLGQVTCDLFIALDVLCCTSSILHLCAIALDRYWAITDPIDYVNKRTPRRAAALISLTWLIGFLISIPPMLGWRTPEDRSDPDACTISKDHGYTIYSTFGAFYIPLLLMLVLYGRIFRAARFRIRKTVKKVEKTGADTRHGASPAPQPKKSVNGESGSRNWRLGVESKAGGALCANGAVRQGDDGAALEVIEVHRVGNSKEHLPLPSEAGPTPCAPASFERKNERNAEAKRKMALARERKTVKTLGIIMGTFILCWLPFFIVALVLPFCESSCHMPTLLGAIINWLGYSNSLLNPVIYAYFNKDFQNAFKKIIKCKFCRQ
Nature of the assay: Cellular functional assay, serotoninergic 5-HT1A receptor (agonism/antagonism). Format: cell-based. To be noted: for inhibition at 1 µM: CHO, read-out: 5-HT1A-antag. [%]; for activation at 1 µM: agonist effect, percent of control specific agonist response (100 nM 8-OH-DPAT for control), 1×10^−6 M, 5-HT1A (h), CHO cells, read-out: 5-HT1A-ag [%]. How it is done: (§1) The compounds were tested at the concentration of 1×10^−6M.
(§2) In the Tables ag refers to agonism, and antag to antagonism).

For assay [3], the target named is T3, serotoninergic 5-HT6 receptor (Homo sapiens, UniProt P50406). As to the kind of experiment: Cellular functional assay, serotoninergic 5-HT6 receptor (agonism/antagonism). The format is cell-based. To be noted: for activation at 1 µM: agonist effect, percent of control specific agonist response, compounds tested at 1×10^−6M, read-out: 5-HT6-ag [%]; for inhibition at 1 µM: read-out: 5-HT6-antag. [%]. The method, then: as §1, §2
T3 sequence (P50406 whole entry): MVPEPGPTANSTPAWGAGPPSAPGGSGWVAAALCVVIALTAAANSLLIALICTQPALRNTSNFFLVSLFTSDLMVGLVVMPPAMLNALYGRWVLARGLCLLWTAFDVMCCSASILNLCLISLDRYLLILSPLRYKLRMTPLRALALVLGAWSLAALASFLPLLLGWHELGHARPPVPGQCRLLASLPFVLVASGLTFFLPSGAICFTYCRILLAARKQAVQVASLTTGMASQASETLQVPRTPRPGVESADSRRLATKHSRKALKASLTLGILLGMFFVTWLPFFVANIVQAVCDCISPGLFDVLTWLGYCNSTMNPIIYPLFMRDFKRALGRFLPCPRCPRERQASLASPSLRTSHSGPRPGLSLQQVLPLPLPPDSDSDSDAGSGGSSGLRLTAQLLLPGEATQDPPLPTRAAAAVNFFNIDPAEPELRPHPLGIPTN

For assay [4], the target named is T4, dopaminergic D3 receptor (Homo sapiens, UniProt P35462). As to the kind of experiment: Binding assay D3 (h), [3H]methyl-spiperone, CHO cells. Also noted: expressed in transfected cells; host or cells: CHO cells. To be noted: read-out: D3 [%]. In a few lines: (§3)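 Total binding and binding under an excess of unlabelled competitor were both measured, the difference giving specific binding. Counts came from scintillation detection, and compound concentration was 1×10^−6 M.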
T4 sequence (P35462 whole entry): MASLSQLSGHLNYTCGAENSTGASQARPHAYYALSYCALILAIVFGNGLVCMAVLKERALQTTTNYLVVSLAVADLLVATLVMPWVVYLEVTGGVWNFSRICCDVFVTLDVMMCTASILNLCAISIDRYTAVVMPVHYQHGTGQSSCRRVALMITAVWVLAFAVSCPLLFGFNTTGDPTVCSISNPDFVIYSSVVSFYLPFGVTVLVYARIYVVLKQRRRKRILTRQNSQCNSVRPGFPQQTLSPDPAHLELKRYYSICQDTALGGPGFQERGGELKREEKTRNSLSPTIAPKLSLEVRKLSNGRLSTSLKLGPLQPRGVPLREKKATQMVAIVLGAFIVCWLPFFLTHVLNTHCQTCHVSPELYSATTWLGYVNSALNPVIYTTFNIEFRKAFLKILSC

Assay [5] addresses T1, serotoninergic 5-HT2A receptor. Nature of the assay: Binding assay 5-HT2A (h), [3H]ketanserin, HEK-293 cells. The conditions noted are these: read-out: 5-HT2A. Also noted: expressed in transfected cells; host or cells: HEK-293 cells. The method in brief: as §3
Assay [6] addresses T5, serotoninergic receptor 5-HT2C (Homo sapiens, UniProt P28335).
T5 construct: expressed in transfected cells; host or cells: HEK-293 cells
T5 sequence (P28335 33-458): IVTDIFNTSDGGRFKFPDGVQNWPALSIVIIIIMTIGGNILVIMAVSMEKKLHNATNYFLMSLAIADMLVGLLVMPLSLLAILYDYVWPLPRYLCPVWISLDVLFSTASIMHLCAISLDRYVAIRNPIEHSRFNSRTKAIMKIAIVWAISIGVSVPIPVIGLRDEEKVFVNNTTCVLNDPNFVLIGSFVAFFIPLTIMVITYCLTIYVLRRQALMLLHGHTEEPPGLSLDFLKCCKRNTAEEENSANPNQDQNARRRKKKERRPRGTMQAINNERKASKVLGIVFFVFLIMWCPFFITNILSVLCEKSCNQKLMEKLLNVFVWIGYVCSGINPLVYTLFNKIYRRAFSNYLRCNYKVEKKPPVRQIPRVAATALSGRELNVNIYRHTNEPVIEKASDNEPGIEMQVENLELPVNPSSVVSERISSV
As to the kind of experiment: Binding assay 5-HT2C (h), [3H]mesulergine, HEK-293 cells. The conditions noted are these: read-out: 5-HT2C [%]. In a few lines: as §3

Assay [7] addresses serotoninergic 5-HT7 receptor (Homo sapiens, UniProt P34969). Nature of the assay: Binding assay 5-HT7 (h), [3H]LSD, CHO cells. The conditions noted are these: read-out: 5-HT7. Also noted: expressed in transfected cells; host or cells: CHO cells. In a few lines:
as §3

For assay [8], the target named is T6, serotonine transporter (SERT) receptor (Homo sapiens, UniProt P31645).
T6 construct: expressed in transfected cells; host or cells: CHO cells
T6 sequence (P31645 whole entry): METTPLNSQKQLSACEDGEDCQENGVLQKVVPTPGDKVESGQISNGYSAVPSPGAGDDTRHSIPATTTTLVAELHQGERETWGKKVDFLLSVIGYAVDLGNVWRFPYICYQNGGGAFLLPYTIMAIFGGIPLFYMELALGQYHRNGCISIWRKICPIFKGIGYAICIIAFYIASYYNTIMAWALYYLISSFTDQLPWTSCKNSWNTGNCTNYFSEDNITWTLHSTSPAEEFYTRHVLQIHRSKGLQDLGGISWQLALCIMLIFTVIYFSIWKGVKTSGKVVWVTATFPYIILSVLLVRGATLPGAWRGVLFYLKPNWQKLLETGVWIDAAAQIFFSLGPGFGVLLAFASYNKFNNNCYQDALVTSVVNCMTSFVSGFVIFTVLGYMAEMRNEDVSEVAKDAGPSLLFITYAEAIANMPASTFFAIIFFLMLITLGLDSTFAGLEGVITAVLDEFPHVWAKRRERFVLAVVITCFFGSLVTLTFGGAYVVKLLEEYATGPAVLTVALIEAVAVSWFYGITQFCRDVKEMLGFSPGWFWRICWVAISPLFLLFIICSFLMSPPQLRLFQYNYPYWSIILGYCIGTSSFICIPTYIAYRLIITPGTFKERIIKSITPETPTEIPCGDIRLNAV
As to the kind of experiment: Binding assay SERT (h), [3H]imipramine, CHO cells. To be noted: read-out: SERT [%]. The method in brief: as §3

The next assay deals with adrenergic α1 receptor. As to the kind of experiment: Binding assay α1 (non-selective), [3H]prazosin, rat cerebral cortex. The conditions noted are these: percent inhibition of control specific binding; compounds tested at 1×10^−6 M. In a few lines:
as §3

Assay [9] has as its target T3, serotoninergic 5-HT6 receptor. As to the kind of experiment: Binding assay 5-HT6 (h), [3H]LSD, CHO cells. Also noted: expressed in transfected cells; host or cells: CHO cells. The conditions noted are these: read-out: 5-HT6. The method in brief: as §3
For assay [10], the target named is T4, dopaminergic D3 receptor. As to the kind of experiment: Cellular functional assay, dopaminergic D3 receptor (agonism/antagonism). The format is cell-based. To be noted: for inhibition at 1 µM: CHO, read-out: D3-antag. [%]; for activation at 1 µM: agonist effect, percent of control specific agonist response (300 nM dopamine for control), 1×10^−6 M, D3 (h), CHO cells, read-out: D3-ag [%]. The method, then:
as §1, §2

SMILES strings stand for the structures.

T1 sequence (P28223 whole entry): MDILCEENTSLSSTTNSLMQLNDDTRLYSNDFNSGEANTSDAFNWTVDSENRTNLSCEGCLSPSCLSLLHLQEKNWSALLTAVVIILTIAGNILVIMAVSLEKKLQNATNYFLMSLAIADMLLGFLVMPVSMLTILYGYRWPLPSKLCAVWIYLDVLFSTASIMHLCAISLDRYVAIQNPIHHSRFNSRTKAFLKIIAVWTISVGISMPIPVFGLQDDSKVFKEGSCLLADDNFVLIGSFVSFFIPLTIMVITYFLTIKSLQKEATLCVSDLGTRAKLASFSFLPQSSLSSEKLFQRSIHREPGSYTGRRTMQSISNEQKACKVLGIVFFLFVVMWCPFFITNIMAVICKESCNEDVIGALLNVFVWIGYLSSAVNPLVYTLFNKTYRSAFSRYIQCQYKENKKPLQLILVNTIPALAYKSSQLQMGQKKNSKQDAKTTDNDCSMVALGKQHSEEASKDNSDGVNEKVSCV
serotoninergic 5-HT7 receptor, sequence (P34969 whole entry): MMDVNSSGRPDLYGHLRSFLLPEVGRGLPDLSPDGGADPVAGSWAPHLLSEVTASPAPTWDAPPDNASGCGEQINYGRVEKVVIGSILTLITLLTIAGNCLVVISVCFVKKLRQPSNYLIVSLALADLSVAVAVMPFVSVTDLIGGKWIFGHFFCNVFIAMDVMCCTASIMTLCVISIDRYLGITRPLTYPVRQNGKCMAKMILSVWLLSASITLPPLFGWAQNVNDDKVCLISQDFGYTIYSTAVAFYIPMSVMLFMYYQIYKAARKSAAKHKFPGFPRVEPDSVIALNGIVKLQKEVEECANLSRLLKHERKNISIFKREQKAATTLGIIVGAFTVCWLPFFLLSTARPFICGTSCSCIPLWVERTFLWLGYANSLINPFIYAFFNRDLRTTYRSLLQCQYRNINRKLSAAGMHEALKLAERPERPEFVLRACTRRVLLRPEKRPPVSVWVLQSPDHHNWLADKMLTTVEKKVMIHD

Consider `O=c1[nH]c2ccc(S(=O)(=O)NCCCCN3CCN(c4noc5ccccc45)CC3)cc2o1` [Compound 16, N-(4-(4-(1,2-Benzoxazol-3-yl)piperazin-1-yl)butyl)-2-oxo-3H-1,3-benzoxazole-6-sulphonamide], for which the activation at 1 µM is -1% in assay [1], -14% in [2] and 0% in assay [3]. Also, the inhibition at 1 µM was determined as 98% in assay [1]; 91% in assay [2]; 50% in assay [3]; 99% at dopaminergic D3 receptor [4]; 100% in [5]; 53% in [6]. Moreover, the values for the inhibition at 1 µM in assay [7], in assay [8] and in [9] were 99%, -3% and 94%, respectively. Moreover, the “α1 [%]” value with adrenergic α1 receptor is given as 101%.
Turning to `O=S(=O)(NCCCCN1CCN(c2cccc3[nH]ccc23)CC1)c1ccc2ccccc2c1` [Compound 26, N-{4-[4-(1H-Indol-4-yl)piperazin-1-yl]butyl}naphthalene-2-sulphonamide], the results for the activation at 1 µM (in assay [1]; in [2]; on dopaminergic D3 receptor [10]) were -1%, 67% and 64%, respectively. Moreover, the inhibition at 1 µM in [1] came out at 77%; in [2], 22%; on dopaminergic D3 receptor [4] it was 98%; in assay [5], 98%; in [6], 19%; in [7], 98%. Besides, the inhibition at 1 µM in assay [8] is 14%; in assay [9], 51%; at dopaminergic D3 receptor [10], -8%. Also, in the assay with adrenergic α1 receptor, the “α1 [%]” value came to 98%.
On to `O=S(=O)(NCCCCN1CCN(c2cccc3[nH]ccc23)CC1)c1cccc(F)c1` [Compound 28, 3-Fluoro-N-{4-[4-(1H-indol-4-yl)piperazin-1-yl]butyl}benzenesulphonamide], for which the inhibition at 1 µM in assay [2] came out at 27%; in assay [3], 53%; on dopaminergic D3 receptor [4], 99%; in assay [5] it was 89%; in assay [6], 6%; in assay [7] it was 92%. The inhibition at 1 µM in [8] is 53%; in assay [9], 98%; on dopaminergic D3 receptor [10] it was -2%. Also, the activation at 1 µM is 63% in [2], 0% in [3] and 59% at dopaminergic D3 receptor [10]. The “α1 [%]” value with adrenergic α1 receptor came out at 92%.
Turning to `O=S(=O)(NCCCCN1CCN(c2cccc3[nH]ccc23)CC1)c1cc2ccccc2s1` [Compound 33, N-{4-[4-(1H-Indol-4-yl)piperazin-1-yl]butyl}-1-benzothiophene-2-sulphonamide], the activation at 1 µM in assay [1] is -1%; in assay [2], 63%; on dopaminergic D3 receptor [10], 60%. The inhibition at 1 µM came out at 41% in [1]; 24% in assay [2]; 101% at dopaminergic D3 receptor [4]; 95% in assay [5]; 27% in assay [6]; 99% in assay [7]. The inhibition at 1 µM in assay [8] is -4%; in assay [9], 42%; at dopaminergic D3 receptor [10], -1%. Further, the “α1 [%]” value in the assay with adrenergic α1 receptor was determined as 100%.
For the compound `O=S(=O)(NCCCCN1CCN(c2cccc3[nH]ccc23)CC1)c1ccc2cc(Cl)ccc2c1` [Compound 358, 6-Chloro-N-[4-[4-(1H-indol-4-yl)piperazin-1-yl]butyl]naphthalene-2-sulphonamide], the activation at 1 µM in [1] was -1%; in assay [2], 22%; at dopaminergic D3 receptor [10], 47%. For the same compound, the inhibition at 1 µM in assay [1] amounted to 57%; in [2] it was 70%; on dopaminergic D3 receptor [4] it was 99%; in assay [5], 99%; in assay [6] it was 62%; in assay [7], 94%. Besides, the inhibition at 1 µM in assay [8] was 40%; in assay [9], 70%; on dopaminergic D3 receptor [10], 35%. In addition, in the assay with adrenergic α1 receptor, the “α1 [%]” value amounted to 88%.
As for `O=S(=O)(NCCCCN1CCN(c2cccc3[nH]ccc23)CC1)c1ccc(F)cc1` [Compound 359, 4-Fluoro-N-[4-[4-(1H-indol-4-yl)piperazin-1-yl]butyl]benzenesulphonamide], the inhibition at 1 µM in assay [2] was 94%; at dopaminergic D3 receptor [4], 100%; in assay [5], 79%; in assay [6], 12%; in [7] it was 95%; in [8] it was 33%. In addition, the inhibition at 1 µM in [9] amounted to 42%; at dopaminergic D3 receptor [10], 79%. Moreover, the activation at 1 µM was 22% in [2] and 25% on dopaminergic D3 receptor [10]. In the assay on adrenergic α1 receptor, the “α1 [%]” value stood at 97%.
As to `O=c1[nH]c2cccc(N3CCN(CCCNS(=O)(=O)c4cccc5ccccc45)CC3)c2[nH]1` [Compound 423, N-[3-[4-(2-oxo-1,3-dihydrobenzimidazol-4-yl)piperazin-1-yl]propyl]naphthalene-1-sulphonamide], the inhibition at 1 µM in [2] was 73%; at dopaminergic D3 receptor [4] it was 98%; in [5], 30%; in assay [6], 9%; in assay [7], 88%; in assay [8] it was 25%. Further, the inhibition at 1 µM was determined as 16% in assay [9] and 22% on dopaminergic D3 receptor [10]. In addition, the activation at 1 µM in [2] came out at 35%; on dopaminergic D3 receptor [10], 70%. Besides, in the assay with adrenergic α1 receptor, the “α1 [%]” value is given as 91%.
As to `O=c1[nH]c2cccc(N3CCN(CCCNS(=O)(=O)c4ccc5ccccc5c4)CC3)c2[nH]1` [Compound 424, N-[3-[4-(2-oxo-1,3-dihydrobenzimidazol-4-yl)piperazin-1-yl]propyl]naphthalene-2-sulphonamide], the inhibition at 1 µM is 75% in assay [2]; 98% on dopaminergic D3 receptor [4]; 66% in assay [5]; 8% in assay [6]; 95% in assay [7]; -3% in [8]. Moreover, the inhibition at 1 µM in [9] amounted to 69%; on dopaminergic D3 receptor [10], 18%. Further, the activation at 1 µM in assay [2] turned out to be 23%; on dopaminergic D3 receptor [10] it was 70%. Also, the “α1 [%]” value in the assay with adrenergic α1 receptor is 93%.
